Read-outs that look alike come from different tables or passages of the source.
Experiments:
NDM-1 = details: crude enzyme extract, 100 µM cephalothin, 3 min pre-incubation; read-out: IC50 against NDM-1; cited from earlier work
IMP-59 = IMP-59 (Escherichia coli, UniProt A0A172MB70); assay: IC50, inhibition of cephalothin hydrolysis; assay type: biochemical
Experimental: (§1) Cultures of E. coli TOP10 harboring recombinant plasmids and therefore producing the different IMP-like tested were grown overnight at 37°C in 50 mL of lysogeny broth (LB) with gentamicin (50 µg/mL). The bacterial suspension was pelleted, resuspended in 10 mL of 100 mM phosphate buffer (pH 7) supplemented with ZnSO4 (5 µM) for E. coli TOP10 harboring IMPs and then sonicated using a Vibra Cell 75186 sonicator (Thermo Fisher Scientific), followed by centrifugation for 1 h at 11,000 × g and 4°C. The presence of the β-lactamase was monitored using nitrocefin (200 µM). Kinetic measurements were performed at room temperature in 100 mM sodium phosphate (pH 7.0) supplemented with ZnSO4 (5 µM) for IMPs using a UV/visible ULTROSPEC 2100 pro spectrophotometer (Amersham Biosciences, Buckinghamshire, UK). The wavelength and absorption coefficient of cephalothin (262 nm/Ʌ ɛ = −7960 M^−1.cm^−1) were used for all IMPs, and IC50 was determined in triplicate for TAN and XER. Various concentrations of these inhibitors were pre-incubated with the crude extract of the enzyme for 3 min at room temperature to determine the concentrations that reduced the hydrolysis rate of 100 µM of cephalothin by 50% ([54]).

IMP-6 = target: T1, IMP-6 (Serratia marcescens, UniProt P52699, S214G); assay: IC50, inhibition of cephalothin hydrolysis; assay type: biochemical; details: crude enzyme extract, 100 µM cephalothin, 3 min pre-incubation; read-out: IC50 against IMP-6
T1 construct: made in house; host or cells: E. coli TOP10, plasmid pUCP24 (crude extract)
Experimental: as §1

IMP-26 = IMP-26 (Klebsiella pneumoniae, UniProt D0V558); assay: IC50, inhibition of cephalothin hydrolysis; assay type: biochemical
Experimental: as §1

IMP-14 = assay: IC50, inhibition of cephalothin hydrolysis; assay type: biochemical; details: crude enzyme extract, 100 µM cephalothin, 3 min pre-incubation; read-out: IC50 against IMP-14
Experimental: as §1

IMP-19 = details: crude enzyme extract, 100 µM cephalothin, 3 min pre-incubation; read-out: IC50 against IMP-19; cited from earlier work
IMP-14 N178S = assay: IC50, inhibition of cephalothin hydrolysis; assay type: biochemical; details: crude enzyme extract, 100 µM cephalothin, 3 min pre-incubation; read-out: IC50 against IMP-14 N178S
Experimental: (§2) Genes encoding different acquired IMP-like enzymes suspected to be resistant to XER (blaIMP-6, blaIMP-7, blaIMP-10, blaIMP-14, blaIMP-26, blaIMP-34, and blaIMP-59) were amplified by PCR, and corresponding amplicons were cloned into plasmid pUCP24 and expressed in E. coli TOP10. The following recombinant E. coli strains producing IMP-1, IMP-4, IMP-19, and NDM-1 were used from a previous study ([16]). Therefore, site-directed mutagenesis was performed using the Q5 Site-Directed Mutagenesis kit (ref. E0554S, New England Biolabs, Ipswich, MA) to obtain mutants of NDM-1 and IMP-14 in order to test the impact of specific amino-acid substitutions with respect to XER sensitivity. For that purpose, a list of primers was designed and provided as Table S1. […] The nomenclature used in this study was according to the BBL sequence numbering ([52]).
as §1

IMP-14 H174N = assay: IC50, inhibition of cephalothin hydrolysis; assay type: biochemical; details: crude enzyme extract, 100 µM cephalothin, 3 min pre-incubation; read-out: IC50 against IMP-14 H174N
Experimental: as §2, §1

IMP-14 N233Y = assay: IC50, inhibition of cephalothin hydrolysis; assay type: biochemical; details: crude enzyme extract, 100 µM cephalothin, 3 min pre-incubation; read-out: IC50 against IMP-14 N233Y
Experimental: as §2, §1

IMP-14 S65G = assay: IC50, inhibition of cephalothin hydrolysis; assay type: biochemical; details: crude enzyme extract, 100 µM cephalothin, 3 min pre-incubation; read-out: IC50 against IMP-14 S65G
Experimental: as §2, §1

IMP-14 D227Y = assay: IC50, inhibition of cephalothin hydrolysis; assay type: biochemical; details: crude enzyme extract, 100 µM cephalothin, 3 min pre-incubation; read-out: IC50 against IMP-14 D227Y
Experimental: as §2, §1

IMP-1 = details: crude enzyme extract, 100 µM cephalothin, 3 min pre-incubation; read-out: IC50 against IMP-1; cited from earlier work
IMP-10 = details: crude enzyme extract, 100 µM cephalothin, 3 min pre-incubation; read-out: IC50 against IMP-10; cited from earlier work
IMP-4 = details: crude enzyme extract, 100 µM cephalothin, 3 min pre-incubation; read-out: IC50 against IMP-4; cited from earlier work

Structure (SMILES): O=C(O)c1c(F)ccc2c1OB(O)[C@@H]1C[C@H]21 [xeruborbactam]
- IC50 (IMP-59): 10.3 µM
- IC50 (IMP-6): 180 µM
- IC50 (IMP-26): 77 µM
- IC50 (IMP-14): > 250 µM
- IC50 (IMP-19): 7.5 µM
- IC50 (IMP-14 N178S): 180 µM
- IC50 (IMP-14 H174N): 182 µM
- IC50 (IMP-14 N233Y): 210 µM
- IC50 (IMP-14 S65G): 140 µM
- IC50 (IMP-14 D227Y): 250 µM
- IC50 (IMP-1): 2700 nM
- IC50 (IMP-10): 73 µM
- IC50 (IMP-4): 14.7 µM

Structure (SMILES): NCCN[C@H]1CC[C@H](CC(=O)N[C@H]2Cc3cccc(C(=O)O)c3OB2O)CC1 [taniborbactam]
- IC50 (IMP-59; crude enzyme extract, 100 µM cephalothin, 3 min pre-incubation, read-out: IC50 against IMP-59): 7 µM
- IC50 (IMP-6): > 250 µM
- IC50 (IMP-26; crude enzyme extract, 100 µM cephalothin, 3 min pre-incubation, read-out: IC50 against IMP-26): > 250 µM
- IC50 (IMP-14): > 250 µM
- IC50 (IMP-19): > 250 µM
- IC50 (IMP-14 N178S): > 250 µM
- IC50 (IMP-14 H174N): > 250 µM
- IC50 (IMP-14 N233Y): > 250 µM
- IC50 (IMP-14 S65G): > 250 µM
- IC50 (IMP-14 D227Y): 204 µM
- IC50 (IMP-1): > 250000 nM
- IC50 (IMP-10): > 250 µM
- IC50 (IMP-4): > 250 µM
